# Laboratory results: patent publication US10100064B2, “Purine inhibitors of human phosphatidylinositol 3-kinase delta” (Merck Sharp & Dohme Corp., priority 2014, dated 2018)
# Tests used:
# PI3Kalpha = molecular target: T1, PI3Kalpha (Homo sapiens, UniProt P42336); test: HTRF PI3K biochemical assay, alpha isoform (selectivity versus delta); conditions: relative ratio PI3K-alpha IC50 value / PI3K-delta IC50 value
# T1 construct: purchased Upstate; Millipore 14-602
# Summary of the method: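 Recombinant PI3Kα (0.5 nM) pre-incubated 15 min with compound, then reacted 1 h at room temperature with 5 μM PIP2 and 100 μM ATP. After EDTA stop, PIP3 measured by HTRF displacement of biotin-PIP3 from GST-GRP1 PH domain (665/620 nm). 10-point dose response; IC50 corrected using a PIP3 standard curve.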
# PI3Kdelta = molecular target: T2, PI3Kdelta (Homo sapiens, UniProt O00329); test: HTRF PI3K biochemical assay, delta isoform; conditions: 0.3 nM enzyme, 100 uM ATP, 5 uM PIP2, form screened (Neutral or TFA salt) given per compound
# T2 construct: purchased Upstate; Millipore 14-604
# Summary of the method: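 PI3Kδ at 0.3 nM with 100 uM ATP and 5 uM PIP2, 10-point 3-fold dilutions, 15 min enzyme–compound pre-incubation, then 1 h reaction at room temperature. PIP3 formation detected by HTRF displacement of biotin-PIP3 from GST-GRP1-PH (665/620 nm ratio). IC50 corrected using a PIP3 standard curve.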
# T2 sequence (O00329 whole entry, canonical isoform): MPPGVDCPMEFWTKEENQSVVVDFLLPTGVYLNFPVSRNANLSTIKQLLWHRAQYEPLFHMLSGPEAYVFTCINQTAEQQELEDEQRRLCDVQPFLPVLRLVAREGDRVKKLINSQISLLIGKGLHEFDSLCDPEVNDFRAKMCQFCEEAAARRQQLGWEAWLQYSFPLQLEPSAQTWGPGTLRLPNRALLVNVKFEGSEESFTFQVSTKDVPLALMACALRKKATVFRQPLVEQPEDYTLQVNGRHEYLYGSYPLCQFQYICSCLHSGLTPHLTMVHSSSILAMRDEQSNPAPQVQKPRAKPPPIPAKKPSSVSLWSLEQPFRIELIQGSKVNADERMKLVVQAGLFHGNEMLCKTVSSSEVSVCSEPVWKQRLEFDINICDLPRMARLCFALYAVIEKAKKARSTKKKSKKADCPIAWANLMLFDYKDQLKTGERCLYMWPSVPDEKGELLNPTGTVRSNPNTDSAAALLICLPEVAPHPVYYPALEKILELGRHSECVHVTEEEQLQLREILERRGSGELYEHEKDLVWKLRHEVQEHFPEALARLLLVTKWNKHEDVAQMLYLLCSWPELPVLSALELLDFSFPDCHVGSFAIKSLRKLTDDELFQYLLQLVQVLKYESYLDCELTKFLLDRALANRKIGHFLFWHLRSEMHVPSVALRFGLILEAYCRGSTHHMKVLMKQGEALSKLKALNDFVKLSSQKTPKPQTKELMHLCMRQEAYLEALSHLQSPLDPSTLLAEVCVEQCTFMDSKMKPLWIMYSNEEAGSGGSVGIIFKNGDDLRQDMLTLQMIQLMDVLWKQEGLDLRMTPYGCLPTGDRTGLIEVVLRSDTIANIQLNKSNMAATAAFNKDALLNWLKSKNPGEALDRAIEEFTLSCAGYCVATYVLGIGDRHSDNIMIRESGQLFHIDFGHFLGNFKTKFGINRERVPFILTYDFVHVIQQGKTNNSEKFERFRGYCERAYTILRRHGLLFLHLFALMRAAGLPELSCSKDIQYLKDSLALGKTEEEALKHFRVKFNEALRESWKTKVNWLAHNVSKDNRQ
# T2 sequence (P27986 whole entry partner, canonical isoform): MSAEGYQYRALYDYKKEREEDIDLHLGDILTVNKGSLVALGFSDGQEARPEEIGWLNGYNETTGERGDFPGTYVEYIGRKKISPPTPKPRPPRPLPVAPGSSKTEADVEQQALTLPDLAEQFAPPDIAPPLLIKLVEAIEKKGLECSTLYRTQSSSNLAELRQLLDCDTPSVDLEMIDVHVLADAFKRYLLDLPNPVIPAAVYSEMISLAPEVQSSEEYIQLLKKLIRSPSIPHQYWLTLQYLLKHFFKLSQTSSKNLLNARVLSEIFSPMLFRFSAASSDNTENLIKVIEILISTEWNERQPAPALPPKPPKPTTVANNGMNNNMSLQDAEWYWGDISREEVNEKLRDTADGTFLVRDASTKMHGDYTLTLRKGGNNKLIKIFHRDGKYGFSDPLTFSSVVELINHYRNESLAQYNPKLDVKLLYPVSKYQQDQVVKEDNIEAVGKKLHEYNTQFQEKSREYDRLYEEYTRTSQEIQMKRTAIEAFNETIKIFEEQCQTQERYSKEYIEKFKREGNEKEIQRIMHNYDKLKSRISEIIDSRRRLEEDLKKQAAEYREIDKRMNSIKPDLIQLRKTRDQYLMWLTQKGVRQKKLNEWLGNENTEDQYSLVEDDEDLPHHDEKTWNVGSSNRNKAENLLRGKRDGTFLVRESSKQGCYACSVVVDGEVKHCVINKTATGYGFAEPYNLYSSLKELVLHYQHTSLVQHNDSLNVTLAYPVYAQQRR
# T1 sequence (P42336 whole entry, canonical isoform): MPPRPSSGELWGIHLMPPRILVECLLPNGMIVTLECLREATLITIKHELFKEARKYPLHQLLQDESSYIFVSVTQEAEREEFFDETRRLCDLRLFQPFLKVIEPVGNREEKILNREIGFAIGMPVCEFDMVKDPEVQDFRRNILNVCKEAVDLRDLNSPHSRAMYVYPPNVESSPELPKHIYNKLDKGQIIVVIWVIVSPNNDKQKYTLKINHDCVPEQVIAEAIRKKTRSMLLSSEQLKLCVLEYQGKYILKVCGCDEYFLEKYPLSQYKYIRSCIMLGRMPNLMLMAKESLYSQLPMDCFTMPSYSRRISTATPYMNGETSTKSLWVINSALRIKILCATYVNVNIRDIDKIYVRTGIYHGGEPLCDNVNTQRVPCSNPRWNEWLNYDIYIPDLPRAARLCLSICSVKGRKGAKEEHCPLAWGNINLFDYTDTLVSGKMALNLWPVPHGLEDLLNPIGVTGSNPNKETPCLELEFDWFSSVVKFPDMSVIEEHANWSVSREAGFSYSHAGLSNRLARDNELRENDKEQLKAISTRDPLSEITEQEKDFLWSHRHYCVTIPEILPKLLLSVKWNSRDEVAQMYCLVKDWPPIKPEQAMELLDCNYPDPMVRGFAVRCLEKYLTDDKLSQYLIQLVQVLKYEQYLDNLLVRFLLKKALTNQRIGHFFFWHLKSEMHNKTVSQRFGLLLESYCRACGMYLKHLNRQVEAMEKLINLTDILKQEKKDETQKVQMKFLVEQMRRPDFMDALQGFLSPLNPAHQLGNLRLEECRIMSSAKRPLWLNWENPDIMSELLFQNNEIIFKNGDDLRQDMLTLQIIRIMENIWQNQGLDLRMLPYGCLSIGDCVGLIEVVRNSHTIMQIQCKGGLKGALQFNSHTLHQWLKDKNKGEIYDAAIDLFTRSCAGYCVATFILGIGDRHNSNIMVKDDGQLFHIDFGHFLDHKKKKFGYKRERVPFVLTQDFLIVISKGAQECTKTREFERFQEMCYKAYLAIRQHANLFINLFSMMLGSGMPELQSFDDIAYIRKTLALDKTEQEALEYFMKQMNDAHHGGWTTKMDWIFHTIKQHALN
# T1 sequence (P27986 whole entry partner, canonical isoform): as the sequence (P27986 whole entry partner, canonical isoform) above
SMILES,Selectivity versus PI3Kalpha (PI3Kalpha),IC50 (PI3Kdelta)
"CCn1c(-c2ccc(C(F)(F)F)nc2)nc2c(NC3CCc4ncn(C5CC5)c4C3)ncnc21 (single isomer, unassigned) [Compound 5-2, (S or R)-N-(1-cyclopropyl-4,5,6,7-tetrahydro-1H-benzimidazol-6-yl)-9-ethyl-8-[6-(trifluoromethyl)pyridin-3-yl]-9H-purin-6-amine]",>10,3.3 nM
"CCn1c(-c2ccc(C(F)(F)F)nc2)nc2c(NC3CCc4ncn(C5CC5)c4C3)ncnc21 (single isomer, unassigned) [Compound 5-3, (S or R)-N-(1-cyclopropyl-4,5,6,7-tetrahydro-1H-benzimidazol-6-yl)-9-ethyl-8-[6-(trifluoromethyl)pyridin-3-yl]-9H-purin-6-amine]",>10,180 nM
"CCn1c(-c2ccc(C(F)(F)F)cc2)nc2c(NC3CCc4ncn(C5CC5)c4C3)ncnc21 (single isomer, unassigned) [Compound 5-4, (S or R)-N-(1-cyclopropyl-4,5,6,7-tetrahydro-1H-benzimidazol-6-yl)-9-ethyl-8-[4-(trifluoromethyl)phenyl]-9H-purin-6-amine]",>10,180 nM
"CCn1c(-c2ccc(C(F)(F)F)cc2)nc2c(NC3CCc4ncn(C5CC5)c4C3)ncnc21 (single isomer, unassigned) [Compound 5-5, (S or R)-N-(1-cyclopropyl-4,5,6,7-tetrahydro-1H-benzimidazol-6-yl)-9-ethyl-8-[4-(trifluoromethyl)phenyl]-9H-purin-6-amine]",>10,5.1 nM
"CCn1c(C(F)F)nc2c(NC3CCc4ncn(C5CC5)c4C3)ncnc21 (single isomer, unassigned) [Compound 5-6, (S or R)-N-(1-cyclopropyl-4,5,6,7-tetrahydro-1H-benzimidazol-6-yl)-8-(difluoromethyl)-9-ethyl-9H-purin-6-amine]",>10,170 nM
"CCc1nc2c(n1C1CC1)CC(Nc1ncnc3c1nc(-c1cnc(C)nc1)n3CC)CC2 (single isomer, unassigned) [Compound 5-8, (S or R)-N-(1-cyclopropyl-2-ethyl-4,5,6,7-tetrahydro-1H-benzimidazol-6-yl)-9-ethyl-8-(2-methylpyrimidin-5-yl)-9H-purin-6-amine]",>10,21 nM
"CCn1c(C(=O)NCC(F)(F)F)nc2c(NC3CCc4ncn(C5CC5)c4C3)ncnc21 (single isomer, unassigned) [Compound 5-9, (S or R)-6-[(1-cyclopropyl-4,5,6,7-tetrahydro-1H-benzimidazol-6-yl)amino]-9-ethyl-N-(2,2,2-trifluoroethyl)-9H-purine-8-carboxamide]",>10,51 nM
"CCn1c(-c2cnc(C)nc2)nc2c(NC3CCc4nc(C(F)F)n(C5CC5)c4C3)ncnc21 (single isomer, unassigned) [Compound 5-10, (S or R)-N-[1-cyclopropyl-2-(difluoromethyl)-4,5,6,7-tetrahydro-1H-benzimidazol-6-yl]-9-ethyl-8-(2-methylpyrimidin-5-yl)-9H-purin-6-amine]",>10,< 1 nM
"CCn1c(-c2cnc(C)nc2)nc2c(NC3CCc4nc(C(F)F)n(C5CC5)c4C3)ncnc21 (single isomer, unassigned) [Compound 5-11, (S or R)-N-[1-cyclopropyl-2-(difluoromethyl)-4,5,6,7-tetrahydro-1H-benzimidazol-6-yl]-9-ethyl-8-(2-methylpyrimidin-5-yl)-9H-purin-6-amine]",>10,40 nM
"CCn1c(-c2cnc(C)nc2)nc2c(NC3CCc4ncn([C@H]5C[C@@H](OC)C5)c4C3)ncnc21 (single isomer, unassigned) [Compound 5-13, (S or R)-9-ethyl-N-[1-(cis-3-methoxycyclobutyl)-4,5,6,7-tetrahydro-1H-benzimidazol-6-yl]-8-(2-methylpyrimidin-5-yl)-9H-purin-6-amine]",>10,4.7 nM

# Now from value to compound:
Selectivity versus PI3Kalpha (PI3Kalpha),IC50 (PI3Kdelta),SMILES
>10,290 nM,"CCn1c(-c2cnc(C)nc2)nc2c(NC3CCc4ncc(C5CC5)n4C3)ncnc21 (single isomer, unassigned) [Compound 4-2, (S or R)-N-(3-cyclopropyl-5,6,7,8-tetrahydroimidazo[1,2-a]pyridin-6-yl)-9-ethyl-8-(2-methylpyrimidin-5-yl)-9H-purin-6-amine]"
>10,2.8 nM,"CCn1c(-c2cnc(C)nc2)nc2c(NC3CCc4ncc(C(C)C)n4C3)ncnc21 (single isomer, unassigned) [Compound 4-3, (S or R)-9-ethyl-N-[3-(1-methylethyl)-5,6,7,8-tetrahydroimidazo[1,2-a]pyridin-6-yl]-8-(2-methylpyrimidin-5-yl)-9H-purin-6-amine]"
>10,210 nM,"CCn1c(-c2cnc(C)nc2)nc2c(NC3CCc4ncc(C(C)C)n4C3)ncnc21 (single isomer, unassigned) [Compound 4-4, (S or R)-9-ethyl-N-[3-(1-methylethyl)-5,6,7,8-tetrahydroimidazo[1,2-a]pyridin-6-yl]-8-(2-methylpyrimidin-5-yl)-9H-purin-6-amine]"
>10,5.5 nM,"CCn1c(-c2cnc(C)nc2)nc2c(NC3CCc4ncn(C5CC5)c4C3)ncnc21 (single isomer, unassigned) [Compound 5-1, (S or R)-N-(1-cyclopropyl-4,5,6,7-tetrahydro-1H-benzimidazol-6-yl)-9-ethyl-8-(2-methylpyrimidin-5-yl)-9H-purin-6-amine]"
>10,19 nM,"CCn1c(-c2cnc(C)nc2)nc2c(NC3CCc4nc(C)n(C5CC5)c4C3)ncnc21 (single isomer, unassigned) [Compound 5-7, (S or R)-N-(1-cyclopropyl-2-methyl-4,5,6,7-tetrahydro-1H-benzimidazol-6-yl)-9-ethyl-8-(2-methylpyrimidin-5-yl)-9H-purin-6-amine]"
>10,230 nM,"CCn1c(-c2cnc(C)nc2)nc2c(NC3CCc4ncn([C@H]5C[C@@H](OC)C5)c4C3)ncnc21 (single isomer, unassigned) [Compound 5-14, (S or R)-9-ethyl-N-[1-(cis-3-methoxycyclobutyl)-4,5,6,7-tetrahydro-1H-benzimidazol-6-yl]-8-(2-methylpyrimidin-5-yl)-9H-purin-6-amine]"
>10,4.2 nM,"CCn1c(-c2cnc(C)nc2)nc2c(NC3CCc4ncn(C(C)C)c4C3)ncnc21 (single isomer, unassigned) [Compound 5-15, (S or R)-9-ethyl-N-[1-(1-methylethyl)-4,5,6,7-tetrahydro-1H-benzimidazol-6-yl]-8-(2-methylpyrimidin-5-yl)-9H-purin-6-amine]"
>10,384 nM,"CCn1c(-c2cnc(C)nc2)nc2c(NC3CCc4ncn(C(C)C)c4C3)ncnc21 (single isomer, unassigned) [Compound 5-16, (S or R)-9-ethyl-N-[1-(1-methylethyl)-4,5,6,7-tetrahydro-1H-benzimidazol-6-yl]-8-(2-methylpyrimidin-5-yl)-9H-purin-6-amine]"
>10,9 nM,"CCn1c(-c2cnc(C)nc2)nc2c(NC3Cc4c(ncn4C(C)C)C(C)C3)ncnc21 (single isomer, unassigned) [Compound 5-17, 9-ethyl-N-[(4(S or R), 6(S or R)-4-methyl-1-(1-methylethyl)-4,5,6,7-tetrahydro-1H-benzimidazol-6-yl]-8-(2-methylpyrimidin-5-yl)-9H-purin-6-amine]"
>10,510 nM,"CCn1c(-c2cnc(C)nc2)nc2c(NC3Cc4c(ncn4C(C)C)C(C)C3)ncnc21 (single isomer, unassigned) [Compound 5-18, 9-ethyl-N-[(4(S or R), 6(S or R)-4-methyl-1-(1-methylethyl)-4,5,6,7-tetrahydro-1H-benzimidazol-6-yl]-8-(2-methylpyrimidin-5-yl)-9H-purin-6-amine]"
>10,1.7 nM,"CCn1c(-c2cnc(C)nc2)nc2c(NC3Cc4c(ncn4C(C)C)CC3C)ncnc21 (single isomer, unassigned) [Compound 5-19, 9-ethyl-N-[cis-5-methyl-1-(1-methylethyl)-4,5,6,7-tetrahydro-1H-benzimidazol-6-yl]-8-(2-methylpyrimidin-5-yl)-9H-purin-6-amine]"
>10,120 nM,"CCn1c(-c2cnc(C)nc2)nc2c(NC3Cc4c(ncn4C(C)C)CC3C)ncnc21 (single isomer, unassigned) [Compound 5-20, 9-ethyl-N-[trans-5-methyl-1-(1-methylethyl)-4,5,6,7-tetrahydro-1H-benzimidazol-6-yl]-8-(2-methylpyrimidin-5-yl)-9H-purin-6-amine]"
>10,5.7 nM,"CCn1c(-c2cnc(C)nc2)nc2c(NC3CCc4ncn(C(C)C)c4C3C)ncnc21 (single isomer, unassigned) [Compound 5-21, 9-ethyl-N-[((6S, 7S) or (6R, 7R))-7-methyl-1-(1-methylethyl)-4,5,6,7-tetrahydro-1H-benzimidazol-6-yl]-8-(2-methylpyrimidin-5-yl)-9H-purin-6-amine]"
